The target in data set [1] is Urokinase-type plasminogen activator (Homo sapiens, UniProt P00749).
Description: Inhibition of human kidney uPA using fluorogenic Z-Pyr-Gly-Arg-MCA as substrate measured after 15 mins by fluorometric analysis
A further data set concerns the target Trypsin (Homo sapiens, UniProt P07477+P07478+P35030). Kind of data set: Inhibition of trypsin (unknown origin) using chromogenic H-D-Ile-[…]-L-arginine-p-nitroaniline as substrate. In kind it is protein assay.
Data set [2] relates to Rattus norvegicus. As to the kind of experiment: Diuretic activity in Sprague-Dawley rat model of acetazolamide-induced diuresis assessed as increase in urine volume at 1.5 mg/kg, ip pretreated with acetazolamide followed by compound treatment measured after 6 hrs. In kind it is ADME, organism-based. As to conditions: in vivo.
Data set [3] relates to Rattus norvegicus. As to the kind of experiment: Diuretic activity in Sprague-Dawley rat model of acetazolamide-induced diuresis assessed as increase in sodium excretion at 1.5 mg/kg, ip pretreated with acetazolamide followed by compound treatment measured after 6 hrs. In kind it is ADME, organism-based. Conditions: in vivo.
For data set [4], the system named is Rattus norvegicus. As to the kind of experiment: Antikaliuretic activity in Sprague-Dawley rat model of acetazolamide-induced diuresis assessed as decrease in potassium secretion at 1.5 mg/kg, ip pretreated with acetazolamide followed by compound treatment measured after 6 hrs. It is filed as ADME, organism-based. Conditions: in vivo.
The target of another data set is Plasminogen (Homo sapiens, UniProt P00747). As to the kind of experiment: Inhibition of plasmin (unknown origin) using chromogenic H-D-Ile-[…]-L-arginine-p-nitroaniline as substrate.
For a further data set, the target named is Prothrombin (Homo sapiens, UniProt P00734). Kind of data set: Inhibition of thrombin (unknown origin) using chromogenic H-D-Ile-[…]-L-arginine-p-nitroaniline as substrate.
A further data set addresses Coagulation factor X (Homo sapiens, UniProt P00742). Kind of data set: Inhibition of factor Xa (unknown origin).
The target of another data set is Coagulation factor XI (Homo sapiens, UniProt P03951). As to the kind of experiment: Inhibition of factor 11a (unknown origin) using chromogenic L-pyroGlu-L-Pro-L-Arg-p-nitroaniline as substrate.
Data set [5] has as its target Vitamin K-dependent protein C (Homo sapiens, UniProt P04070). Kind of data set: Inhibition of activated protein C (unknown origin) using chromogenic L-pyroGlu-L-Pro-L-Arg-p-nitroaniline as substrate.
For the next data set, the system named is HT-1080. Kind of data set: Antimetastatic activity against luciferase-tagged human HT1080 cells xenografted in NSG mouse assessed as reduction in lung burden at 7.5 mg/kg/day, ip for 21 days by luciferase assay. In kind it is functional, organism-based. In general terms: In xenograft studies the graft and the host belong to different species.
In another data set the target is Plasma kallikrein (Homo sapiens, UniProt P03952).
In data set [6] the target is Tissue-type plasminogen activator (Homo sapiens, UniProt P00750).
Description: Inhibition of tissue-type plasminogen activator (unknown origin) using chromogenic H-D-Ile-L-propyl-L-arginine-p-nitroaniline as substrate

Active and inactive are the calls of the source. The calls are words filed in the database; no cut-off is given here.

Chain of Plasma kallikrein (P03952 20-390 limits assumed): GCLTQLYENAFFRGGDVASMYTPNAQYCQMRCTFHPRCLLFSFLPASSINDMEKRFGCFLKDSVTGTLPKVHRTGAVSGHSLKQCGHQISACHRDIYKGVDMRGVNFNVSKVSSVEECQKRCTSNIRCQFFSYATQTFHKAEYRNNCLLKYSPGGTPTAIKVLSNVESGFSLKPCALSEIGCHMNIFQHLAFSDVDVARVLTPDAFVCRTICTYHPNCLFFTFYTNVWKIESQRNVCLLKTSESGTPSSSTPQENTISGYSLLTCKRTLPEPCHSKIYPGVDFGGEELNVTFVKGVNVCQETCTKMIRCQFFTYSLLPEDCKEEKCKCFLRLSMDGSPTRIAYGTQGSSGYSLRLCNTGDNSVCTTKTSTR
Chain of Plasma kallikrein (P03952 391-638 limits assumed): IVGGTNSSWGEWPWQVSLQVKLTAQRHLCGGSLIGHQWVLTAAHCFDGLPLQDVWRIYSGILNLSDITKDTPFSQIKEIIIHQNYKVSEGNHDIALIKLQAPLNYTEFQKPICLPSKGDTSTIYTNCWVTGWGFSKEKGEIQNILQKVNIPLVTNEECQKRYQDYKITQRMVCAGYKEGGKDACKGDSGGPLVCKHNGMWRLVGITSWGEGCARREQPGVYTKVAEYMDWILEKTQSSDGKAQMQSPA
Chain of Coagulation factor XI (P03951 19-387 limits assumed): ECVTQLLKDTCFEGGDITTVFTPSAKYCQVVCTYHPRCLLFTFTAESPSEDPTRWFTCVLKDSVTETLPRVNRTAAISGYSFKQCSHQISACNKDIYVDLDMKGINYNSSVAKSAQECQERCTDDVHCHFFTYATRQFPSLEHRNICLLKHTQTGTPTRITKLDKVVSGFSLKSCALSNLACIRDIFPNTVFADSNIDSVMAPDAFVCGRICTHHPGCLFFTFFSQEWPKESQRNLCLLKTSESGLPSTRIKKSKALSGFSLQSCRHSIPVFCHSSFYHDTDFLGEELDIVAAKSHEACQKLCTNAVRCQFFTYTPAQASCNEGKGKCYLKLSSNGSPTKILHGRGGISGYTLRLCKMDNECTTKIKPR
Chain of Coagulation factor XI (P03951 388-625 limits assumed): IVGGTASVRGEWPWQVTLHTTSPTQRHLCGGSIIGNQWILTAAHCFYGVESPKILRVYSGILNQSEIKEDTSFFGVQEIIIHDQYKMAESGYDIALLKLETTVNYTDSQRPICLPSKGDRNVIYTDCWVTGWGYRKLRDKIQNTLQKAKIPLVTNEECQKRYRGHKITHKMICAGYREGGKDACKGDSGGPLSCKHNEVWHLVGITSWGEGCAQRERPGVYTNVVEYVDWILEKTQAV
Chain of Plasminogen (P00747 97-580 limits assumed): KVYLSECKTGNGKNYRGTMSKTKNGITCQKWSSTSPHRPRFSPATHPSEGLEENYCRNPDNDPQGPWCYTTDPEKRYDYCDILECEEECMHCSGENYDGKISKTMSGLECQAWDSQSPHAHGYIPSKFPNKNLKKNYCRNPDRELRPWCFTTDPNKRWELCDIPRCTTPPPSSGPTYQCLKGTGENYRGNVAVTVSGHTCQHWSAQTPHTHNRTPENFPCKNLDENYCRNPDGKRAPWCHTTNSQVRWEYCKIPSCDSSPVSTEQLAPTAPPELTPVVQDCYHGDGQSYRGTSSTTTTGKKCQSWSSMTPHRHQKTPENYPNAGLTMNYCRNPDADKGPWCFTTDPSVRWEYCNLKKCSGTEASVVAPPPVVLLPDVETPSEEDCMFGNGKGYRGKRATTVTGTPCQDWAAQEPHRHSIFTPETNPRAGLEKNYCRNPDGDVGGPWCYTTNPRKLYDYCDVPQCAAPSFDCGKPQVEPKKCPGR
Chain of Plasminogen (P00747 581-810 limits assumed): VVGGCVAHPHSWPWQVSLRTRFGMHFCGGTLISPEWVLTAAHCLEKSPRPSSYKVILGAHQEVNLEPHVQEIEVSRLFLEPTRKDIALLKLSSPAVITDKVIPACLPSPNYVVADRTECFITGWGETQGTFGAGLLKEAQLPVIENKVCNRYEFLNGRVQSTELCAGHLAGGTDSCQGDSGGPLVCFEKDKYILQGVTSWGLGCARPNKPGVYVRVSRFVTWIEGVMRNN
Chain of Tissue-type plasminogen activator (P00750 whole entry): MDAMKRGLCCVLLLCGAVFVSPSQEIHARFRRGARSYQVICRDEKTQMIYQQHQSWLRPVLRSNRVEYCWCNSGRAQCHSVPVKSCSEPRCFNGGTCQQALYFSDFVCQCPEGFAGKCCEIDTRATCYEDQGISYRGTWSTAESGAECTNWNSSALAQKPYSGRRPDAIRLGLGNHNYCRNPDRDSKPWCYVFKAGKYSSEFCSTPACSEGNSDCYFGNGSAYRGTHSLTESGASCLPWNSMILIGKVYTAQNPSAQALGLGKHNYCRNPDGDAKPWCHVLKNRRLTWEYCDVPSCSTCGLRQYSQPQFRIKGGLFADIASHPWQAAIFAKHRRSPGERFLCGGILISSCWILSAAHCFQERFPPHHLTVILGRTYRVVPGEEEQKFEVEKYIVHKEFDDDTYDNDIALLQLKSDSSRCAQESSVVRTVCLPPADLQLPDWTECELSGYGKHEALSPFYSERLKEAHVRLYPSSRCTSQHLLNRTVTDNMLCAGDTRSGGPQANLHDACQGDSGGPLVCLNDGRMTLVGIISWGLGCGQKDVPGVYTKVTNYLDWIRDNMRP
Chain of Vitamin K-dependent protein C (P04070 43-197 limits assumed): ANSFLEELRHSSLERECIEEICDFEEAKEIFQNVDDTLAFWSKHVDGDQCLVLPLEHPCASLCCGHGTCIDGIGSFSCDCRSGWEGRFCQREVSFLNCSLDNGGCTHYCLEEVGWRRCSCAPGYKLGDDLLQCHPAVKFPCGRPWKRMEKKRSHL
Chain of Vitamin K-dependent protein C (P04070 212-461 limits assumed): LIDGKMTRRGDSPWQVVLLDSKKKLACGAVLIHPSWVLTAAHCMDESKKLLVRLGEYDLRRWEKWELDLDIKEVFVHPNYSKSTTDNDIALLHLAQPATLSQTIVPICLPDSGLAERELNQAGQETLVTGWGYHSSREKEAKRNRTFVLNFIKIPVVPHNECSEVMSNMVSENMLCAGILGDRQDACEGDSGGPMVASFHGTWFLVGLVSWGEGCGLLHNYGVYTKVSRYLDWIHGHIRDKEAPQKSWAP
Chain of Coagulation factor X (P00742 41-179 limits assumed): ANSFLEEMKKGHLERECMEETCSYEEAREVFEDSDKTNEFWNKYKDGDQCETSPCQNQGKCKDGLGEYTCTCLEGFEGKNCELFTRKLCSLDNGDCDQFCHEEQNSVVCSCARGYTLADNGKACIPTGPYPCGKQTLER
Chain of Coagulation factor X (P00742 235-488 limits assumed): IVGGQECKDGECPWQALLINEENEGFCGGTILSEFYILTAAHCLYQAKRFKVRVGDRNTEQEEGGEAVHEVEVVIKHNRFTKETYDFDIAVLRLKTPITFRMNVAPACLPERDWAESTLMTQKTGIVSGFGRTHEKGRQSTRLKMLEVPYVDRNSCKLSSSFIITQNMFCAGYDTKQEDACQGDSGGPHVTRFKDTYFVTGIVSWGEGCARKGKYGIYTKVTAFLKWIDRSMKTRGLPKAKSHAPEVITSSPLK
Description for Plasma kallikrein: Inhibition of human plasma kallikrein using chromogenic L-pyroGlu-L-Pro-L-Arg-p-nitroaniline as substrate

Broadly, the Ki is the equilibrium dissociation constant of an inhibitor or competing ligand from its target. A high value points to weaker binding. With `COc1ccc2oc(-c3nc(C(=O)NC(=N)N)c(N)nc3N)cc2c1`, in data set [1], affinity was put at a Ki of 0.287 µM.

In [1], `COc1ccc(-c2nc(C(=O)NC(=N)N)c(N)nc2N)c(OC)n1` had an inhibition constant Ki of 1.21 µM. This Ki lies about 4.2-fold higher than the previous one.

With `Cn1cc(-c2nc(C(=O)NC(=N)N)c(N)nc2N)cn1`, the inhibition constant (Ki) in [1] amounted to 0.482 µM. `CSc1ccc(-c2nc(C(=O)NC(=N)N)c(N)nc2N)cc1` had an inhibition constant (Ki) in [1] of 2.41 µM. Same read-out and setting: for `N=C(N)NC(=O)c1nc(-c2ccoc2)c(N)nc1N` the value was 0.499 µM; for `N=C(N)NC(=O)c1nc(-c2cc3ccccc3s2)c(N)nc1N`, 1.41 µM. Same read-out and setting: for `Cc1ccc2oc(-c3nc(C(=O)NC(=N)N)c(N)nc3N)cc2c1` the value was 0.642 µM; for `COc1ncc(-c2nc(C(=O)NC(=N)N)c(N)nc2N)c(OC)n1`, 1.63 µM; for `N=C(N)NC(=O)c1nc(-c2ccc3c(c2)CCO3)c(N)nc1N`, 1.48 µM. The same measure, in the same setting: for `N#Cc1ccc2oc(-c3nc(C(=O)NC(=N)N)c(N)nc3N)cc2c1` the value was 0.904 µM. Broadly, the IC50 is the concentration that inhibits the measured activity by half. A high value points to weaker potency in that assay. `N=C(N)NC(=O)c1nc(-c2cc3ccccc3o2)c(N)nc1N` displayed an IC50 at Trypsin of more than 50 µM. Moreover, the Activity entry in the data set on Rattus norvegicus [2], in the data set on Rattus norvegicus [3] and with Rattus norvegicus [4] was “Non-Toxic” in each case.

In data set [1], `N=C(N)NC(=O)c1nc(-c2ccco2)c(N)nc1N` had a Ki of 0.776 µM. `N=C(N)NC(=O)c1nc(Cl)c(N)nc1N` [AMILORIDE]: the IC50 on Plasminogen is more than 20 µM; against Prothrombin, more than 20 µM; at Trypsin, more than 50 µM; on Coagulation factor X it was more than 50 µM; on Coagulation factor XI it was more than 50 µM; in data set [5] it was more than 50 µM. Further, the IC50 against Plasma kallikrein is more than 50 µM; in data set [6], more than 20 µM. Further, the inhibition result in the data set on HT-1080 is “inactive”. Compound `COc1ccc2cc(-c3nc(C(=O)NC(=N)N)c(N)nc3N)oc2c1` returned a Ki in data set [1] of 0.439 µM. In other words, the sub-micromolar range. As to `N=C(N)NC(=O)c1nc(-c2ccccc2)c(N)nc1N`, in data set [1], the affinity corresponds to a Ki of 2.5 µM. Regarding `COc1ncc(-c2nc(C(=O)NC(=N)N)c(N)nc2N)cn1`, the Activity result in the data set with Rattus norvegicus [3] and with Rattus norvegicus [4] was “Non-Toxic” throughout. Also, the Ki in data set [1] stood at 0.204 µM. With `N=C(N)NC(=O)c1nc(-c2cc3cc(F)ccc3o2)c(N)nc1N`, affinity in data set [1] was put at a Ki of 0.587 µM. Regarding `N=C(N)NC(=O)c1nc(-c2cc3cc(Cl)ccc3o2)c(N)nc1N`, in [1], the affinity corresponds to a Ki of 0.578 µM. Compound `N=C(N)NC(=O)c1nc(-c2ccc3occc3c2)c(N)nc1N` had a Ki in data set [1] of 0.35 µM. Turning to `N=C(N)NC(=O)c1nc(-c2cc3cc(Br)ccc3o2)c(N)nc1N`, the inhibition constant (Ki) in data set [1] turned out to be 3.65 µM. Still for that read-out and setting: the value for `N=C(N)NC(=O)c1nc(-c2ccc(C(F)(F)F)cc2)c(N)nc1N` was 3.14 µM. Still for that read-out and setting: the value for `N=C(N)NC(=O)c1nc(-c2cccs2)c(N)nc1N` was 1.26 µM.

The values are drawn from ChEMBL document CHEMBL4406892 (Bioorg Med Chem Lett, 2019).
